Data set [1] relates to WEHI 231 cells. The data set can be described thus: TUNEL analysis, inhibitor alone (toxicity control). The class given is cell-based, murine. Conditions: no ActD. The procedure: Flow Cytometry measures the percent of the cell population undergoing apoptosis. The effect of the inhibitors is identified as a reduction in the percent of the cell population undergoing apoptosis. Cell Type: WEHI 231 cells, murine immature B cells (suspension) Plate cells at 2×10^5/ml in 10 ml of media (Total 2×10^6 cells) Preincubate caspase inhibitors (Formula I) one hour before inducing apoptosis. […] [table] Process fixed cells for Tunel using the Apo-BRDU kit from Pharmingen (San Diego, Calif.) following the manufacturer's instructions and analyze by flow cytometry.

Data set [2] concerns WEHI 231 cells. Put plainly: TUNEL analysis of Actinomycin D induced apoptosis, flow cytometry. Conditions: for effective concentration in TUNEL test: blind test by TUNEL method, conclusions. Type of data set: cell-based, murine. The procedure:
Flow Cytometry measures the percent of the cell population undergoing apoptosis. The effect of the inhibitors is identified as a reduction in the percent of the cell population undergoing apoptosis. Cell Type: WEHI 231 cells, murine immature B cells (suspension) Plate cells at 2×10^5/ml in 10 ml of media (Total 2×10^6 cells) Preincubate caspase inhibitors (Formula I) one hour before inducing apoptosis. […] Actinomycin D (ActD) stock is 1 μg/μl add 10 μl/10 ml)-Treat 4 h Process for Tunel Analysis. (See Table 2 below). […] Cell Processing for Tunel Analysis and Flow Cytometry. Centrifuge cells at 300× g for 5 min and aspirate supernatant. Resuspend cells in 5.0 ml of cold 1× PBS, Spin at 300× g, 5 min. Aspirate supernatant. […] Incubate for 15 min. on ice. […] Aspirate supernatant. […] Aspirate supernatant. […] Aspirate supernatant. Resuspend the cell in 300 μl of cold IX PBS, Transfer to a 1.5 ml tube. […] Store at −20° C. at least 18 hr prior to Tunel Labeling Fixed cells are stable for at least 30 days. Process fixed cells for Tunel using the Apo-BRDU kit from Pharmingen (San Diego, Calif.) following the manufacturer's instructions and analyze by flow cytometry.

Data set [3] concerns the target T1, caspase 1 (Homo sapiens, UniProt P29466).
T1 sequence (P29466 120-297 limits assumed): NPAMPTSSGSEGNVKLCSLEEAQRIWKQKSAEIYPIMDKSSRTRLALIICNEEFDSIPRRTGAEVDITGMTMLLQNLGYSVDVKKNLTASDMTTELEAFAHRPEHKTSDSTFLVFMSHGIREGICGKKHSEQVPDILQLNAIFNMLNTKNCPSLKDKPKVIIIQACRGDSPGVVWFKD
T1 sequence (P29466 317-404 limits assumed): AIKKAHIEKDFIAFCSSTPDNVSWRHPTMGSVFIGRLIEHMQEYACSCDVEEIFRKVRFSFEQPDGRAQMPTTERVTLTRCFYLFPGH
Put plainly: Caspase inhibition assay, AcYVAD-AFC substrate. Conditions: from figure, antilog of log concentration; read-out: IC50 caspase 1. Type of data set: biochemical. The procedure:
The determination of the IC50/μm was performed according to Gary Johnson, 9401 James Avenue, Suite No. 155, Bloomington, Minn. 55431.
Caspase Inhibition Assay:—Caspases are diluted in caspase buffer, 0.1 M HEPES, 10% sucrose 0.1% CHAPS and 10 mM DTT, pH 7.5. Caspases 1, 3, and 8 are used at a concentration of 144 U/well and caspase 9 is used at 4.8 U/well in a 96 well fluorometric plate.
Inhibitors are initially dissolved in DMSO at 10 mg/ml and further dilutions can be prepared in caspase buffer. The inhibitors are generally tested at concentrations ranging from 50 uM to 0.005 uM. These are usually prepared as 2 fold or 2.5 fold decreasing dilutions. The enzyme approximately 144 U in 120 ul caspase buffer is added to 380 ul caspase buffer containing the appropriate concentration on the inhibitor and incubated on ice for 15 min. The reactants 200 ul are then added to a black fluorimetric plate and incubated in the fluorometer at 37° C. for 30 min.
During the incubation period appropriate coumarin substrates are prepared by dilution in DMSO and caspase buffer to provide a 0.417 mM working stock. AcYVAD-AFC is used for caspase 1, AcDEVD-AFC for caspase 3. AcIETD-AFC for caspase 8 and Ac-LEHD-AFC for capsase 9. Twenty five microliters of the stock solution are added to 200 ul of the caspase and inhibitor test solutions to give a final substrate concentration of 0.046 mM.
The fluorometer is set to 400 nm excitation and 505 nm emission. The enzyme-inhibitor-substrate is allowed to incubate at for an additional twenty min. and the response is read as fluorescence units vs inhibitor concentration. The responses are plotted as percent of the maximum response (response in the absence of inhibitor) for each concentration of the inhibitor. The inhibitory activity for each inhibitor is described as the concentration of inhibitor that produces a 50% inhibition of the maximum response (IC50).

Where [4] appears, read: 1 μM inhibitor + ActD, WEHI 231, lower = greater inhibitory activity.
Where [5] appears, read: 10 μM inhibitor + ActD, WEHI 231.
Setting [6] is: 20 μM inhibitor + ActD, WEHI 231.
Where [7] appears, read: 30 μM inhibitor + ActD, WEHI 231.
[8] abbreviates: 40 μM inhibitor + ActD, WEHI 231.
Where [9] appears, read: 50 μM inhibitor + ActD, WEHI 231.
Where [10] appears, read: 100 μM inhibitor + ActD, WEHI 231.

Where a name gives a salt, the structure may show the parent alone.

In the case of “4HQ-Ala-Asp(OMe)—CH2—OPh [Inhibitor H^1]”, the “% non-viable cells, inhibitor alone” value in data set [1] (20 μM Inh alone) stood at 3%; in data set [1] (100 μM Inh alone) it was 2%. For the same molecule, the “% non-viable cells” value stood at 81% in data set [2] (setting [4]); 92% in data set [2] (setting [5]); 88% in data set [2] (setting [6]); 91% in data set [2] (setting [7]); 85% in data set [2] (setting [8]); 82% in data set [2] (setting [9]). In addition, the “% non-viable cells” value in data set [2] (setting [10]) is reported as 83%. In data set [2], the “effective concentration in TUNEL test” value was “not effective”.

For `COC(=O)C[C@H](NC(=O)[C@@H](NC(=O)NCCc1c[nH]c2ccc(OC)cc12)C(C)C)C(=O)COc1c(F)cccc1F` [melatonin-V-D(OMe)—CH2—O—Ph, 5-methoxytrytamine-carbonyl-Val Asp(OMe)-α-(2-oxy-2,6-Difluorophenyl) Methyl Ketone], in data set [3], the IC50 was approximately 139 nM.

As for `COC(=O)CC(NC(=O)C(C)NC(=O)C(NC(=O)OCc1ccccc1)C(C)C)C(=O)COc1c(F)cccc1F` (stereo not drawn) [Inhibitor G^1, 2-Val-Ala-Asp(OMe)—CH2—OPh], the “% non-viable cells, inhibitor alone” value in data set [1] (20 μM Inh alone) and in data set [1] (100 μM Inh alone) was 1% each time. Also, the “% non-viable cells” value in data set [2] (setting [4]) was 56%; in data set [2] (setting [5]), 62%; in data set [2] (setting [6]), 57%; in data set [2] (setting [7]) it was 52%; in data set [2] (setting [8]) it was 62%; in data set [2] (setting [9]), 56%. Also, the “% non-viable cells” value in data set [2] (setting [10]) is given as 8%. Moreover, in data set [2], the “effective concentration in TUNEL test” value turned out to be 100 µM.

For the molecule hydroxy Trp-TTP-V-D(OMe)—CH2—O—Ph, the IC50 in data set [3] is approximately 115 nM.

Take indole-(2-carbonyl)-3-V-D(OMe)—CH2—O—Ph: the IC50 in data set [3] is approximately 460 nM.

On to `COC(=O)CC(NC(=O)[C@@H](NC(=O)[C@@H](N)Cc1c[nH]c2ccccc12)C(C)C)C(=O)COc1ccccc1` (stereo partly shown) [TFA Trp-V-D(OMe)—CH2—O—Ph TFA], for which, in data set [3], the IC50 is approximately 624 nM.

On to MQ-Ala-Asp(OMe)—CH2—OPh [Inhibitor F^1], for which the “% non-viable cells, inhibitor alone” value in data set [1] (20 μM Inh alone) and in data set [1] (100 μM Inh alone) was 5% throughout. In addition, the “% non-viable cells” value in data set [2] (setting [4]) came to 32%; in data set [2] (setting [5]) it was 35%; in data set [2] (setting [6]), 47%; in data set [2] (setting [7]), 61%; in data set [2] (setting [8]), 36%; in data set [2] (setting [9]), 20%. Besides, the “% non-viable cells” value in data set [2] (setting [10]) was found to be 21%. The “effective concentration in TUNEL test” value in data set [2] is on record as “not effective”.

The term IC50 denotes the midpoint of a concentration-inhibition curve.
